Results taken from patent US6037348A (priority 1997, dated 2000).

Test system: influenza virus strain A/Kaw/86

## COC(=O)[C@@]1(C)CCC[C@]2(C)c3cc(OC)ccc3C(=O)C[C@@H]12 [COMPOUND A]
  plaque morphology of mutant A2: altered plaque morphology
